Source: US20100273652A1 (priority 2009, published 2010)

Legend:
Format in all cases: cell-based
[1] = system: fumonisin FB1 production of Fusarium proliferatum; test: Inhibition of fumonisin FB1 production of Fusarium proliferatum; details: 5 days, 20° C., vs control without compound
[2] = system: Fusarium proliferatum; test: Growth inhibition of Fusarium proliferatum (OD620); details: OD620 at start and after 5 days
[3] = system: DON/Acetyl-DON production of Fusarium graminearum
[4] = system: Fusarium graminearum

Structure (SMILES)	% inhibition at 50 μM FB1 [1]	% inhibition at 50 μM Fusarium proliferatum (growth) [2]	% inhibition at 50 μM DON/AcDON [3]	% inhibition at 50 μM Fusarium graminearum (growth) [4]
Nc1cc(-c2[nH]c3cccnc3c2-c2ccc(F)cc2)ccn1 [Example 4]	45%	31%		
C=C=Cn1c(-c2ccncc2)c(-c2ccc(F)cc2)c2ncccc21 [Example 15]		37%	44%	33%
